Columns and labels:
[1] = Effective concentration in vitro against rabbit urethra Alpha-1 adrenergic receptor
[2] = Effective concentration in vitro against rabbit urethra Alpha-1A adrenergic receptor

CC(N)C(O)c1ccccc1 [(1R, 2S)-2-Amino-1-phenyl-propan-1-ol]
EC50 [1]: 230 µM

CCS(=O)(=O)Nc1cccc(Cc2cnc[nH]2)c1 [ABT-866]
EC50 [2]: 0.6 µM

COc1ccc(OC)c(C(O)CN)c1 (stereo not drawn)
EC50 [1]: 7.1 µM

Source: BindingDB's records for doi:10.1021/jm025550h (Abbott Laboratories, 2002)
